The record followed here is patent US20240352502A1, “ANALYTICAL METHODS FOR BACTERIAL IDENTIFICATION AND ANTIBIOTIC SUSCEPTIBILITY TESTING IN BIOLOGICAL SAMPLES” (UNIVERSITY OF SCIENCE AND TECHNOLOGY OF CHINA, priority 2021, published 2024).

This assay deals with E. coli. The experiment in a line: Antibiotic susceptibility test of a single living bacterium in whole blood by single-bacterium mass spectrometry (metabolite signal change). The class given is cell-based, Escherichia coli. The settings on record: E. coli from whole blood supernatant; 10 μL of 8 mg/mL kanamycin or 10 μL of 2 mg/mL norfloxacin added into 500 μL; 30 min at 37° C.; FIG. 12. The procedure:
1 mL of whole blood was taken and placed in a centrifuge tube, centrifuged at 3000 rpm for 8 min; the blood cell pellet was discarded; 10 μL of 8 mg/mL kanamycin and 10 μL of 2 mg/mL norfloxacin were respectively added into 500 μL of the supernatant containing the bacterium, and incubated with shaking at 37° C. After 30 min of incubation, the supernatant was centrifuged at 10,000 rpm for 8 min; the supernatant was discarded, and the pellet was resuspended in 100 μL of deionized water; the solution containing the bacterium not having been incubated with the antibiotic was used as a reference group, and the same operations as above were performed. […]
10 μL of 100 μM Acridine Orange as a staining agent was added into the solution containing the bacterium obtained in step (1) and step (2) to perform staining for 15 min. […] The resuspended solution containing the bacterium was dropped onto a polylysine slide and leave for 30 minutes to allow the bacterium to be adsorbed and fixed on the polylysine slide, and then the polylysine slide was rinsed with deionized water and dried at room temperature; the location of bacteria was observed under a fluorescence microscope. […]

As for `CCn1cc(C(=O)O)c(=O)c2cc(F)c(N3CCNCC3)cc21` [norfloxacin], the “change of alanyl-threonine (m/z 191) signal in a single bacterium after incubation with antibiotic” value is “significantly reduced”.
